Data: patent publication US20180057505A1, “BICYCLIC HETEROARYL COMPOUNDS USEFUL AS INHIBITORS OF THE PAR-2 SIGNALING PATHWAY” (VERTEX PHARMACEUTICALS INCORPORATED, priority 2015, published 2018)

Assays:
Format in all cases: cell-based
PAR2 (HT-29 cells) [1] = target: T1, PAR2 (HT-29 cells) (Homo sapiens, UniProt P55085); experiment: Ca FLIPR TETRA assay, ANTAGONIST mode, activator 3.1 U/mL trypsin; conditions: for IC50: HT-29 cells, activator 3.1 U/mL trypsin, maximal antagonist concentration per Method (A: 0.1, 1 or 2 μM; B: 50 μM); for Trypsin, % @ 50: @ 50 (μM)
T1 construct: host or cells: HT-29
T1 sequence (P55085 26-397): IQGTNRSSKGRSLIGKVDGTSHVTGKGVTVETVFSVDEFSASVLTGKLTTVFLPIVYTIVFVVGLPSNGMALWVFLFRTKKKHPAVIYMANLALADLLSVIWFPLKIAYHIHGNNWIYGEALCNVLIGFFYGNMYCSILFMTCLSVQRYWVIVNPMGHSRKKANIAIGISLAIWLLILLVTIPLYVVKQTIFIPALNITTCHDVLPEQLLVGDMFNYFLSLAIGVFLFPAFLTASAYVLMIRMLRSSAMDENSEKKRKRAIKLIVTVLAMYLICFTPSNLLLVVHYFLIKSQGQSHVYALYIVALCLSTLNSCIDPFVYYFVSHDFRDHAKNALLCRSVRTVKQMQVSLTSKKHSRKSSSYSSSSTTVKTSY
Procedure, shortened: (§1)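 Antagonist mode, HT-29: cells O/N 37 °C, 1% FBS; calcium 5 dye 45 min 37 °C + 15 min RT; cpd (DMSO, HBSS-diluted) 30 min RT; activator at final conc. (8 μM SLIGKV / 1 U/mL thrombin / 3.1 U/mL trypsin / 0.6 μM UTP); FLIPR Tetra Ca2+ read.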

[2] = test system: UTP-stimulated Ca2+ response in HT-29 cells; experiment: Ca FLIPR TETRA assay, ANTAGONIST mode, activator 0.6 μM UTP; conditions: for IC50: HT-29 cells, activator 0.6 μM UTP; for inhibition at 50 µM: HT-29
Procedure, shortened: as §1

[3] = test system: Thrombin-stimulated Ca2+ response in HT-29 cells; experiment: Ca FLIPR TETRA assay, ANTAGONIST mode, activator 1 U/mL Thrombin; conditions: for IC50: HT-29 cells, activator 1 U/mL Thrombin
Procedure, shortened: as §1

PAR2 (HT-29 cells) [4] = target: T1, PAR2 (HT-29 cells); experiment: Ca FLIPR TETRA assay, ANTAGONIST mode, activator 8 μM SLIGKV; conditions: for IC50: HT-29 cells, activator 8 μM SLIGKV, maximal antagonist concentration per Method (A: 0.1, 1 or 2 μM; B: 50 μM); for SLIGKV, % @ 50: @ 50 (μM)
Procedure, shortened: as §1

Structure (SMILES)	IC50 (PAR2 (HT-29 cells) [1]) [µM]	IC50 ([2]; Homo sapiens) [µM]	IC50 ([3]; Homo sapiens) [µM]	IC50 (PAR2 (HT-29 cells) [4]) [µM]	SLIGKV, % @ 50 (PAR2 (HT-29 cells) [4]) [% @ 50]	Trypsin, % @ 50 (PAR2 (HT-29 cells) [1]) [% @ 50]	IC50 [2] [µM]	IC50 [3] [µM]	Thrombin, % @ 50 ([3]; @ 50 (μM)) [% @ 50]	inhibition at 50 µM ([2]; Homo sapiens) [%]
CO[C@H](C)C(=O)N1CCN(C(=O)c2cc3nc(-c4ccc(F)cc4)cc(C(C)C)c3o2)C(C)(C)C1 [Example I-63]	0.11	19	18	0.062	–	–	–	–	–	–
CC(C)c1cc(-c2ccc(F)cc2)nc2cc(C(=O)N3CCN(C(=O)C4CCCCO4)CC3(C)C)oc12 (stereo not shown) [Example I-64]	0.006	21	30	0.0045	–	–	–	–	–	–
CC(C)c1cc(-c2ccc(F)cc2)nc2cc(C(=O)N3CCN(C(=O)c4ccn[nH]4)CC3(C)C)oc12 [Example I-65]	0.016	2.8	2.7	0.01	–	–	–	–	–	–
CO[C@@H](C(=O)N1CCN(C(=O)c2cc3nc(-c4ccc(F)cc4)cc(C(C)C)c3o2)C(C)(C)C1)c1ccccc1 [Example I-66]	0.015	> 50	> 50	0.013	–	–	–	–	–	–
CC(Oc1ccccc1)C(=O)N1CCN(C(=O)c2cc3nc(-c4ccc(F)cc4)cc(C(C)C)c3o2)C(C)(C)C1 (stereo not shown) [Example I-67]	0.0074	> 50	> 50	0.0052	–	–	–	–	–	–
CC(C)c1cc(-c2ccc(F)cc2)nc2cc(C(=O)N3CCN(C(=O)C(C)(O)C(F)(F)F)CC3(C)C)oc12 (stereo not shown) [Example I-68]	0.026	21	29	0.01	–	–	–	–	–	–
CCC(O)(CC)C(=O)N1CCN(C(=O)c2cc3nc(-c4ccc(F)cc4)cc(C(C)C)c3o2)C(C)(C)C1 [Example I-69]	0.052	> 32	37	0.032	–	–	–	–	–	–
CC(C)c1cc(-c2ccc(F)cc2)nc2cc(C(=O)N3CCN(C(=O)C4(O)CC4)CC3(C)C)oc12 [Example I-70]	0.023	16	15	0.017	–	–	–	–	–	–
CC(C)c1cc(-c2ccc(F)cc2)nc2cc(C(=O)N3CCN(C(=O)C4CCCC4)CC3(C)C)oc12 [Example I-71]	0.0047	36	35	0.0026	–	–	–	–	–	–
CC(C)c1cc(-c2ccc(F)cc2)nc2cc(C(=O)N3CCN(C(=O)C4CC4(F)F)CC3(C)C)oc12 (stereo not shown) [Example I-72]	0.0031	13	14	0.0023	–	–	–	–	–	–
CC(C)c1cc(-c2ccc(F)cc2)nc2cc(C(=O)N3CCN(C(=O)c4ccon4)CC3(C)C)oc12 [Example I-73]	0.0042	17	8.5	0.0024	–	–	–	–	–	–
CC(C)c1cc(-c2ccc(F)cc2)nc2cc(C(=O)N3CCN(C(=O)[C@H](O)C(C)C)CC3(C)C)oc12 [Example I-74]	0.0077	13	11	0.0053	–	–	–	–	–	–
CC(C)c1cc(-c2ccc(F)cc2)nc2cc(C(=O)N3CCN(C(=O)[C@H]4CCCO4)CC3(C)C)oc12 [Example I-75]	0.14	23	31	0.024	–	–	–	–	–	–
CC(C)c1cc(-c2ccc(F)cc2)nc2cc(C(=O)N3CCN(C(=O)OC(C)(C)C)CC3)oc12 [Example I-77]	23	> 50	> 50	–	64	–	–	–	–	–
CC(C)c1cc(-c2ccc(F)cc2)nc2cc(C(=O)N3CCN(C(=O)OC(C)(C)C)C[C@H]3C)oc12 [Example I-78]	–	–	–	–	70	65	> 50	> 50	–	–
CC(C)c1cc(-c2ccc(F)cc2)nc2cc(C(=O)N3CCN(C(=O)OC(C)(C)C)C[C@@H]3C)oc12 [Example I-79]	–	> 50	–	1.7	–	60	–	–	26	–

Structure (SMILES)	IC50 (PAR2 (HT-29 cells) [1]) [µM]	IC50 ([2]; Homo sapiens) [µM]	IC50 ([3]; Homo sapiens) [µM]	IC50 (PAR2 (HT-29 cells) [4]) [µM]	SLIGKV, % @ 50 (PAR2 (HT-29 cells) [4]) [% @ 50]	Trypsin, % @ 50 (PAR2 (HT-29 cells) [1]) [% @ 50]	IC50 [2] [µM]	IC50 [3] [µM]	Thrombin, % @ 50 ([3]; @ 50 (μM)) [% @ 50]	inhibition at 50 µM ([2]; Homo sapiens) [%]
CC(C)c1cc(-c2ccc(F)cc2)nc2cc(C(=O)N3CCN(C(=O)C4CCOC4)[C@@H](C)C3)oc12 (stereo partly shown) [Example I-80]	4.7	20	19	1.6	–	–	–	–	–	–
CC(C)c1cc(-c2ccc(F)cc2)nc2cc(C(=O)N3CCN(C(=O)C4CCCC4)[C@@H](C)C3)oc12 [Example I-81]	–	–	> 50	0.022	–	66	–	–	–	46
CCC(CC)C(=O)N1CCN(C(=O)c2cc3nc(-c4ccc(F)cc4)cc(C(C)C)c3o2)C[C@@H]1C [Example I-82]	–	47	> 50	0.18	–	70	–	–	–	–
CC(C)c1cc(-c2ccc(F)cc2)nc2cc(C(=O)N3CCN(C(=O)C(O)c4ccc(F)cc4)[C@@H](C)C3)oc12 (stereo partly shown) [Example I-83]	0.0078	29	11	0.0045	–	–	–	–	–	–
CO[C@@H](C(=O)N1CCN(C(=O)c2cc3nc(-c4ccc(F)cc4)cc(C(C)C)c3o2)C[C@@H]1C)c1ccccc1 [Example I-84]	0.029	> 25	50	0.0063	–	–	–	–	–	–
CC(Oc1ccccc1)C(=O)N1CCN(C(=O)c2cc3nc(-c4ccc(F)cc4)cc(C(C)C)c3o2)C[C@@H]1C (stereo partly shown) [Example I-85]	0.25	> 50	> 50	0.03	–	–	–	–	–	–
CC(C)c1cc(-c2ccc(F)cc2)nc2cc(C(=O)N3CCN(C(=O)c4ccno4)[C@@H](C)C3)oc12 [Example I-86]	0.53	–	> 50	0.39	–	–	–	–	–	60
CC(C)c1cc(-c2ccc(F)cc2)nc2cc(C(=O)N3CCN(C(=O)C(C)(C)O)[C@@H](C)C3)oc12 [Example I-87]	3.8	16	19	3.7	–	–	–	–	–	–
CC(C)c1cc(-c2ccc(F)cc2)nc2cc(C(=O)N3CCN(C(=O)C4CCCCO4)[C@@H](C)C3)oc12 (stereo partly shown) [Example I-88]	0.34	17	17	0.16	–	–	–	–	–	–
CC(C)c1cc(-c2ccc(F)cc2)nc2cc(C(=O)N3CCN(C(=O)C4(O)CCC4)[C@@H](C)C3)oc12 [Example I-89]	1.1	11	13	1	–	–	–	–	–	–
CC(C)c1cc(-c2ccc(F)cc2)nc2cc(C(=O)N3CCN(C(=O)[C@H](O)CC(C)(C)C)[C@@H](C)C3)oc12 [Example I-90]	0.0072	42	> 50	0.0026	–	–	–	–	–	–
CC(C)c1cc(-c2ccc(F)cc2)nc2cc(C(=O)N3CCN(C(=O)C4(O)CCOCC4)[C@@H](C)C3)oc12 [Example I-91]	3.8	11	9.4	3.3	–	–	–	–	–	–
CC(C)c1cc(-c2ccc(F)cc2)nc2cc(C(=O)N3CCN(C(=O)C4(O)CCC4)CC3)oc12 [Example I-92]	6.2	–	–	4.7	–	–	7.4	7.9	–	–
CC(C)c1cc(-c2ccc(F)cc2)nc2cc(C(=O)N3CCN(C(=O)[C@@H](C)O)CC3)oc12 [Example I-93]	16	29	25	18	–	–	–	–	–	–
CC(C)c1cc(-c2ccc(F)cc2)nc2cc(C(=O)N3CCN(C(=O)[C@H](O)CC(C)(C)C)CC3)oc12 [Example I-94]	0.62	–	6.7	1.2	–	–	–	–	–	74
